Measurements taken from patent US5488051A, “Substituted 5,6-dihydro-5-oxo-1,4-dithiino-(2,3-d)-pyridazine-2,3-dicarbonitriles, compositions containing them and their use as antimicrobials” (The Dow Chemical Company, priority 1994, dated 1996).
Where two headings read alike, the source gives them in different places.

How the values were obtained:
Bacillus subtilis (Bs) = assay: MIC for Bacillus subtilis, nutrient agar; type: cell-based, Bacillus subtilis ATCC 8473; details: 48 h
Procedure: (§1) The minimum inhibitory concentration (MIC) for the compounds listed in Table I is determined for 9 bacteria, using nutrient agar; and 7 yeast and fungi, using malt yeast agar. A one percent solution of the test compound is prepared in a mixture of acetone and water.
(§2) Nutrient agar is prepared at pH 6.8, representing a neutral medium, and at pH 8.2, representing an alkaline medium. The nutrient agars are prepared by adding 23 g of nutrient agar to one-liter of deionized water. In addition, the alkaline medium is prepared by adjusting a 0.04M solution of N-[tris-(hydroxymethyl)methyl]-glycine buffered deionized water with concentrated sodium hydroxide to a pH of 8.5.
(§3) The test tubes containing the malt yeast agar and the nutrient agar are cooled in a water bath until the temperature of the agar is 48° C. Then, an appropriate amount of the one percent solution of the test compound is added (except in the controls where no compound is added) to the respective test tubes so that the final concentrations are zero (0), 1.0, 2.5, 5, 10, 25, 50, 100, 250 and 500 parts per million of the test compound in each of the respective type of agar. The contents of each of the test tubes are then transferred to separate petri plates. After drying for 24 hours, the petri plates containing nutrient agar are inoculated with bacteria and those containing malt yeast agar are inoculated with yeast and fungi.
(§4) The inoculation with bacteria is accomplished by using the following procedure. Twenty-four hour-cultures of each of the bacteria are prepared by incubating the respective bacteria in tubes containing nutrient broth for 24 hours at 30° C. in a shaker. Dilutions of each of the 24 hour-cultures are made so that nine separate suspensions (one for each of the nine test bacteria) are made, each containing 10^8 colony forming units (CFU) per mL of suspension of a particular bacteria. Aliquots of 0.3 mL of each of the bacterial suspensions are used to fill the individual wells of Steer's Replicator. For each microbial suspension, 0.3 mL was used to fill three wells (i.e., three wells of 0.3 mL each) so that for the nine different bacteria, 27 wells are filled. The Steer's Replicator is then used to inoculate both the neutral and alkaline pH nutrient agar petri plates.
(§5) The inoculated petri plates are incubated at 30° C. for 48 hours and then read to determine if the test compound which is incorporated into the agar prevented growth of the respective bacteria.
(§6) Table II list the bacteria, yeast and fungi used in the MIC test described above along with their respective American Type Culture Collection (ATCC) identification numbers.

[1] = tested on: Enterobacter aerogenes (Ea); assay: MIC for Enterobacter aerogenes, nutrient agar; type: cell-based, Enterobacter aerogenes ATCC 13048; details: Klebsiella aerogenes, 48 h
Procedure: as §1, §2, §3, §4, §5, §6

Escherichia coli (Ec) = assay: MIC for Escherichia coli, nutrient agar; type: cell-based, Escherichia coli ATCC 11229; details: 48 h
Procedure: as §1, §2, §3, §4, §5, §6

[2] = tested on: Klebsiella pneumonias (Kp); assay: MIC for Klebsiella pneumonias, nutrient agar; type: cell-based, Klebsiella pneumonias ATCC 8308; details: 48 h
Procedure: as §1, §2, §3, §4, §5, §6

Proteus vulgaris (Pv) = assay: MIC for Proteus vulgaris, nutrient agar; type: cell-based, Proteus vulgaris ATCC 881; details: 48 h
Procedure: as §1, §2, §3, §4, §5, §6

[3] = tested on: Pseudomonas aeruginosa (PRD-10); assay: MIC for Pseudomonas aeruginosa PRD-10, nutrient agar; type: cell-based, Pseudomonas aeruginosa ATCC 15442; details: 48 h
Procedure: as §1, §2, §3, §4, §5, §6

[4] = tested on: Pseudomonas aeruginosa (Pa); assay: MIC for Pseudomonas aeruginosa, nutrient agar; type: cell-based, Pseudomonas aeruginosa ATCC 10145; details: 48 hours, read-out: Minimum Inhibitory Concentration (MIC), Pa
Procedure: as §1, §2, §3, §4, §5, §6

Salmonella choleraesuis = assay: MIC for Salmonella choleraesuis, nutrient agar; type: cell-based, Salmonella choleraesuis ATCC 10708; details: Salmonella enterica, 48 h
Procedure: as §1, §2, §3, §4, §5, §6

[5] = tested on: Staphylococcus aureus (Sa); assay: MIC for Staphylococcus aureus, nutrient agar; type: cell-based, Staphylococcus aureus ATCC 6538; details: 48 h
Procedure: as §1, §2, §3, §4, §5, §6

Aspergillus niger (An) = assay: MIC for Aspergillus niger, malt yeast agar; type: cell-based, Aspergillus niger ATCC 16404; details: 72 h, read-out: Minimum Inhibitory Concentration (MIC), An
Procedure: as §1
(§7) Malt yeast agar is prepared by adding 3 g yeast extract and 45 g malt agar per liter of deionized water. The specific agar is dispensed in 30 mL aliquots into 25×200 mm test tubes, capped and autoclaved for 15 minutes at 115° C.
as §3
(§8) The inoculation with the yeast and fungi is accomplished as follows. Cultures of yeast and fungi are incubated for seven days on malt yeast agar at 30° C. These cultures are used to prepare suspensions by the following procedure. A suspension of each organism is prepared by adding 10 mL of sterile saline and 10 microliters of octylphenoxy polyethoxy ethanol to the agar slant of yeast or fungi. The sterile saline/octylphenoxy polyethoxy ethanol solution is then agitated with a sterile swab to suspend the microorganism grown on the slant. Each resulting suspension is diluted into sterile saline (1 part suspension: 9 parts sterile saline). Aliquots of these dilutions are placed in individual wells of Steer's Replicator and petri plates inoculated as previously described. The petri plates are incubated at 30° C. and read after 48 hours for yeast and 72 hours for fungi.
as §6

Candida albicans (Ca) = assay: MIC for Candida albicans, malt yeast agar; type: cell-based, Candida albicans ATCC 10231; details: 48 h, read-out: Minimum Inhibitory Concentration (MIC), Ca
Procedure: as §1, §7, §3, §8, §6

[6] = tested on: Penicillium chrysogenum (Pc); assay: MIC for Penicillium chrysogenum, malt yeast agar; type: cell-based, Penicillium chrysogenum ATCC 9480; details: 72 h, read-out: Minimum Inhibitory Concentration (MIC), PC
Procedure: as §1, §7, §3, §8, §6

Saccharomyces cerevisiae = assay: MIC for Saccharomyces cerevisiae, malt yeast agar; type: cell-based, Saccharomyces cerevisiae ATCC 4105; details: 48 h, read-out: Minimum Inhibitory Concentration (MIC), Sc
Procedure: as §1, §7, §3, §8, §6

Trichoderma viride (Tv) = assay: MIC for Trichoderma viride, malt yeast agar; type: cell-based, Trichoderma viride ATCC 8678; details: 72 h, read-out: Minimum Inhibitory Concentration (MIC), Tv
Procedure: as §1, §7, §3, §8, §6

[7] = tested on: Aureobasidium pullulan (Ap); assay: MIC for Aureobasidium pullulan, malt yeast agar; type: cell-based, Aureobasidium pullulan ATCC 16622; details: read-out: Minimum Inhibitory Concentration (MIC), Ap
Procedure: as §1, §7, §3, §8, §6

Fusarium oxysporum (Fo) = assay: MIC for Fusarium oxysporum, malt yeast agar; type: cell-based, Fusarium oxysporum ATCC 48112; details: 72 h, read-out: Minimum Inhibitory Concentration (MIC), Fo
Procedure: as §1, §7, §3, §8, §6

Compound `ClC=CC[N+]12CN3CN(CN(C3)C1)C2.[Cl-]` [STANDARD I, 1-(3-chloroallyl)-3,5,7-triaza-1-azoniaadamantane chloride, reference compound] has an MIC (Bacillus subtilis (Bs); pH 6.8, read-out: Minimum Inhibitory Concentration (MIC), Bs) of 50 mg/L, an MIC (Bacillus subtilis (Bs); pH 8.2, read-out: Minimum Inhibitory Concentration (MIC), Bs) of 250 mg/L and an MIC ([1]; pH 6.8, read-out: Minimum Inhibitory Concentration (MIC), Ea) of 100 mg/L. The MIC ([1]; pH 8.2, read-out: Minimum Inhibitory Concentration (MIC), Ea) was 250 mg/L, the MIC (Escherichia coli (Ec); pH 6.8, read-out: Minimum Inhibitory Concentration (MIC), Ec) was 100 mg/L and the MIC (Escherichia coli (Ec); pH 8.2, read-out: Minimum Inhibitory Concentration (MIC), Ec) was 250 mg/L. The MIC ([2]; pH 6.8, read-out: Minimum Inhibitory Concentration (MIC), Kp) was 50 mg/L, the MIC ([2]; pH 8.2, read-out: Minimum Inhibitory Concentration (MIC), Kp) was 250 mg/L and the MIC (Proteus vulgaris (Pv); pH 6.8, read-out: Minimum Inhibitory Concentration (MIC), Pv) was 50 mg/L. The MIC (Proteus vulgaris (Pv); pH 8.2, read-out: Minimum Inhibitory Concentration (MIC), Pv) was 250 mg/L, the MIC ([3]; pH 6.8, read-out: Minimum Inhibitory Concentration (MIC), PRD) was 100 mg/L and the MIC ([3]; pH 8.2, read-out: Minimum Inhibitory Concentration (MIC), PRD) was 500 mg/L. It also gave an MIC ([4]; pH 6.8, 30° C.) of 100 mg/L, an MIC ([4]; pH 8.2, 30° C.) of over 500 mg/L and an MIC (Salmonella choleraesuis; pH 6.8, read-out: Minimum Inhibitory Concentration (MIC), SC) of 50 mg/L. For the same compound, the MIC (Salmonella choleraesuis; pH 8.2, read-out: Minimum Inhibitory Concentration (MIC), SC) was 100 mg/L, the MIC ([5]; pH 6.8, read-out: Minimum Inhibitory Concentration (MIC), Sa) was 100 mg/L and the MIC ([5]; pH 8.2, read-out: Minimum Inhibitory Concentration (MIC), Sa) was 250 mg/L. For the same compound, the MIC (Aspergillus niger (An)) was over 500 mg/L, the MIC (Candida albicans (Ca)) was over 500 mg/L and the MIC [6] was over 500 mg/L. For the same compound, the MIC (Saccharomyces cerevisiae) was 500 mg/L, the MIC (Trichoderma viride (Tv)) was over 500 mg/L and the MIC [7] was over 500 mg/L. The MIC (Fusarium oxysporum (Fo)) was over 500 mg/L.
